From PubChem BioAssay AID1963958 (Molecular Pharmacology Branch, DTP, NCI, 2024)

Tested on: MDA-MB-231 multicell spheroids, viability
Assay: Anticancer human tumor MDA-MB-231 cell line growth inhibition [PI3K];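 also: spheroids exposed to agents for seven days before reading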;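 as to viability, T/C: percent of vehicle control luminescence with DMSO treated spheroids as 100%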
Settings: for IC50: curve of first compound; for viability, T/C: stronger effect = lower value; active = viability on the fitted dose curve at most 10% of control; inactive = the rest
Text: Combinatorial screen of targeted agents with the PI3K inhibitors inavolisib, alpelisib, duvelisib, and copanlisib in multi-cell type tumor spheroids
A high-throughput screen of multi-cell type tumor spheroids was designed to identify active combinations of targeted small molecules and PI3K pathway inhibitors. Complex spheroids include a stromal component modeled by human endothelial cells (HUVEC) and fibroblasts modeled by human mesenchymal stem cells (MSCs). The concentration ranges selected for each drug and investigational agent were based upon clinically achievable concentrations if the clinical Cmax of the agent was known.
Compounds. The drugs and investigational agents: inavolisib (NSC800729), alpelisib (NSC765974), duvelisib (NSC772469), copanlisib (NSC816437), ipatasertib (NSC767898), afuresertib (NSC778305), talazoparib (NSC767125), sapanisertib (NSC764658), selumetinib (NSC741078), tovorafenib (DAY101, NSC766906), vemurafenib (NSC761431), ravoxertinib (NSC781343), sotorasib (NSC818433), MRTX1133 (NSC 836407), abemaciclib (NSC 768073), palbociclib (NSC758247), venetoclax (NSC 766270), SY5609 (NSC837396), enzalutamide (NSC755605), and darolutamide (NSC825331), were obtained from the National Cancer Institute (NCI) Developmental Therapeutics Program Chemical Repository. The FDA-approved anticancer drug set is available from the NCI Developmental Therapeutics Program. […] The stock solutions were prepared in dimethyl sulfoxide (DMSO, Sigma-Aldrich, St. Louis, MO, cat. D2650) at 800-fold the tested concentration and stored at -70 degrees C prior to their use. All drugs and investigational agents were tested over a range starting from a high concentration at or near the clinical Cmax and decreasing in half-log increments. If the clinical Cmax for an agent had not been determined, the highest concentration tested was 10 microM.
Cell Culture. All cells were maintained in an incubator at 37 degrees C and 5% CO2 with 95% humidity. The PDC lines were cultured according to standard operating procedures established by the NCI PDMR (https://pdmr.cancer.gov/sops/default.htm). All PDCs were thawed and cultured in Matrigel-coated flasks prepared with a working solution of 1X Ham's F-12 nutrient mix, without supplementation (Invitrogen, Waltham, MA, cat. 11765054), 100 U/mL penicillin-streptomycin (Invitrogen, cat. 15140122), and 2.5% Matrigel (Corning Inc., Corning, NY, cat. 354248) for the first three passages. The 354836-022-R-J1-PDC, 475296-252-R-J1-PDC, and 997726-040-R-J2-PDC lines were cultured in 6A media, which includes advanced DMEM/F-12 (Thermo Fisher Scientific, cat. 12634028), 10 mM HEPES (Thermo Fisher Scientific, cat. 15630080), 1X GlutaMAX supplement (Thermo Fisher Scientific, cat. 35050061), 0.1 mg/mL primocin (InvivoGen, San Diego, CA, cat. ant-pm-2), 10% defined fetal bovine serum, heat inactivated (HyClone Laboratories Inc., Logan, UT, cat. SH30070.03HI), 50% L-WRN conditioned media (ATCC, cat. CRL-3276), 1.25 mM N-Acetyl-L-cysteine (Sigma-Aldrich, cat. A9165), 10 mM nicotinamide (Sigma-Aldrich, cat. N0636), 1X B-27 supplement (Thermo Fisher Scientific, cat. 17504044), 1X N-2 supplement (Thermo Fisher Scientific, cat. 17502048), and 10 microM Y-27632 dihydrochloride (Tocris Bioscience, Bristol, United Kingdom, cat. 1254). The 624824-186-R-J2-PDC line was cultured in 6C/Colon 1B media, which includes all 6A media components plus 50 ng/mL human EGF recombinant protein (Thermo Fisher Scientific, cat. PHG0311). […]

[1] = second compound 0.00316 µM, first compound 0.0316 µM
[2] = second compound 0.00316 µM, first compound 0.1 µM
[3] = second compound 0.00316 µM, first compound 0.316 µM
[4] = second compound 0.00316 µM, first compound 1 µM
[5] = second compound 0.00316 µM, first compound 3.16 µM
[6] = second compound 0.00316 µM, first compound 10 µM
[7] = second compound 0.01 µM, first compound 0.0316 µM
[8] = second compound 0.01 µM, first compound 0.1 µM
[9] = second compound 0.01 µM, first compound 0.316 µM
[10] = second compound 0.01 µM, first compound 1 µM
[11] = second compound 0.01 µM, first compound 3.16 µM
[12] = second compound 0.01 µM, first compound 10 µM
[13] = second compound 0.0316 µM, first compound 0.0316 µM
[14] = second compound 0.0316 µM, first compound 0.1 µM
[15] = second compound 0.0316 µM, first compound 0.316 µM
[16] = second compound 0.0316 µM, first compound 1 µM
[17] = second compound 0.0316 µM, first compound 3.16 µM
[18] = second compound 0.0316 µM, first compound 10 µM
[19] = second compound 0.1 µM, first compound 0.0316 µM
[20] = second compound 0.1 µM, first compound 0.1 µM
[21] = second compound 0.1 µM, first compound 0.316 µM
[22] = second compound 0.1 µM, first compound 1 µM
[23] = second compound 0.1 µM, first compound 3.16 µM
[24] = second compound 0.1 µM, first compound 10 µM
[25] = second compound 0.316 µM, first compound 0.0316 µM
[26] = second compound 0.316 µM, first compound 0.1 µM
[27] = second compound 0.316 µM, first compound 0.316 µM
[28] = second compound 0.316 µM, first compound 1 µM
[29] = second compound 0.316 µM, first compound 3.16 µM
[30] = second compound 0.316 µM, first compound 10 µM
[31] = second compound 1 µM, first compound 0.0316 µM
[32] = second compound 1 µM, first compound 0.1 µM
[33] = second compound 1 µM, first compound 0.316 µM
[34] = second compound 1 µM, first compound 1 µM
[35] = second compound 1 µM, first compound 3.16 µM
[36] = second compound 1 µM, first compound 10 µM

CC1(C)CCC(CN2CCN(c3ccc(C(=O)NS(=O)(=O)c4ccc(NCC5CCOCC5)c([N+](=O)[O-])c4)c(Oc4cnc5[nH]ccc5c4)c3)CC2)=C(c2ccc(Cl)cc2)C1 + CC(Nc1ccc2c(c1)OCCn1cc(N3C(=O)OCC3C(F)F)nc1-2)C(N)=O
inactive: viability, T/C [1] 95.8% | viability, T/C [2] 92.2% | viability, T/C [3] 104% | viability, T/C [4] 111% | viability, T/C [5] 105% | viability, T/C [6] 25.5% | viability, T/C [7] 94.1% | viability, T/C [8] 99.1% | viability, T/C [9] 94.9% | viability, T/C [10] 96.4% | viability, T/C [11] 92.2% | viability, T/C [12] 31.8% | viability, T/C [13] 83.8% | viability, T/C [14] 77.5% | viability, T/C [15] 79.3% | viability, T/C [16] 85.8% | viability, T/C [17] 86.6% | viability, T/C [18] 29.5% | viability, T/C [19] 77.2% | viability, T/C [20] 69.1% | viability, T/C [21] 71.4% | viability, T/C [22] 69.6% | viability, T/C [23] 69.8% | viability, T/C [24] 28.2% | viability, T/C [25] 64% | viability, T/C [26] 64.6% | viability, T/C [27] 61.1% | viability, T/C [28] 66.4% | viability, T/C [29] 70.6% | viability, T/C [30] 21.4% | viability, T/C [31] 64.9% | viability, T/C [32] 60.2% | viability, T/C [33] 60.8% | viability, T/C [34] 60.2% | viability, T/C [35] 65.5% | viability, T/C [36] 18.3%
7.07 µM: IC50 (second compound 0.01 µM)
4.36 µM: IC50 (second compound 1 µM)
5.45 µM: IC50 (second compound 0.1 µM)
6.9 µM: IC50 (second compound 0.00316 µM)
4.72 µM: IC50 (second compound 0.316 µM)
6.41 µM: IC50 (second compound 0.0316 µM)

C[C@@H](NC(=O)c1ncnc(N)c1Cl)c1ncc(C(=O)Nc2cc(C(F)(F)F)c(Cl)cn2)s1 + CC(Nc1ccc2c(c1)OCCn1cc(N3C(=O)OCC3C(F)F)nc1-2)C(N)=O
1.36 µM: IC50 (second compound 0.1 µM)
> 10 µM: IC50 (second compound 0.00316 µM) | IC50 (second compound 0.01 µM)
3.49 µM: IC50 (second compound 0.0316 µM)
0.337 µM: IC50 (second compound 1 µM)
inactive: viability, T/C [1] 119% | viability, T/C [2] 93% | viability, T/C [3] 86.7% | viability, T/C [4] 86.9% | viability, T/C [5] 73.9% | viability, T/C [6] 50.6% | viability, T/C [7] 111% | viability, T/C [8] 94.2% | viability, T/C [9] 81.7% | viability, T/C [10] 72.1% | viability, T/C [11] 68.2% | viability, T/C [12] 49% | viability, T/C [13] 91.3% | viability, T/C [14] 75.1% | viability, T/C [15] 66.1% | viability, T/C [16] 62.7% | viability, T/C [17] 52.3% | viability, T/C [18] 40.8% | viability, T/C [19] 83% | viability, T/C [20] 66.4% | viability, T/C [21] 58.8% | viability, T/C [22] 54.1% | viability, T/C [23] 48.3% | viability, T/C [24] 32.6% | viability, T/C [25] 77.8% | viability, T/C [26] 66.3% | viability, T/C [27] 54.8% | viability, T/C [28] 45.6% | viability, T/C [29] 41% | viability, T/C [30] 33% | viability, T/C [31] 67.4% | viability, T/C [32] 55.4% | viability, T/C [33] 49.5% | viability, T/C [34] 44.8% | viability, T/C [35] 38.4% | viability, T/C [36] 28.8%
0.625 µM: IC50 (second compound 0.316 µM)

Cn1ncnc1[C@H]1c2n[nH]c(=O)c3cc(F)cc(c23)N[C@@H]1c1ccc(F)cc1 + CC(Nc1ccc2c(c1)OCCn1cc(N3C(=O)OCC3C(F)F)nc1-2)C(N)=O
0.0471 µM: IC50 (second compound 0.316 µM)
> 0.1 µM: IC50 (second compound 0.00316 µM) | IC50 (second compound 0.01 µM) | IC50 (second compound 0.0316 µM)
inactive: viability, T/C (second compound 0.00316 µM, first compound 0.000316 µM) 99.1% | viability, T/C (second compound 0.00316 µM, first compound 0.001 µM) 93.9% | viability, T/C (second compound 0.00316 µM, first compound 0.00316 µM) 97.8% | viability, T/C (second compound 0.00316 µM, first compound 0.01 µM) 87.8% | viability, T/C [1] 82.4% | viability, T/C [2] 74.5% | viability, T/C (second compound 0.01 µM, first compound 0.000316 µM) 90.7% | viability, T/C (second compound 0.01 µM, first compound 0.001 µM) 95% | viability, T/C (second compound 0.01 µM, first compound 0.00316 µM) 81.8% | viability, T/C (second compound 0.01 µM, first compound 0.01 µM) 84.4% | viability, T/C [7] 78.2% | viability, T/C [8] 78.3% | viability, T/C (second compound 0.0316 µM, first compound 0.000316 µM) 78.1% | viability, T/C (second compound 0.0316 µM, first compound 0.001 µM) 86.7% | viability, T/C (second compound 0.0316 µM, first compound 0.00316 µM) 75.4% | viability, T/C (second compound 0.0316 µM, first compound 0.01 µM) 73.5% | viability, T/C [13] 63.7% | viability, T/C [14] 58.9% | viability, T/C (second compound 0.1 µM, first compound 0.000316 µM) 70.8% | viability, T/C (second compound 0.1 µM, first compound 0.001 µM) 69.7% | viability, T/C (second compound 0.1 µM, first compound 0.00316 µM) 65% | viability, T/C (second compound 0.1 µM, first compound 0.01 µM) 62.4% | viability, T/C [19] 50.5% | viability, T/C [20] 50.1% | viability, T/C (second compound 0.316 µM, first compound 0.000316 µM) 62.7% | viability, T/C (second compound 0.316 µM, first compound 0.001 µM) 64.3% | viability, T/C (second compound 0.316 µM, first compound 0.00316 µM) 59.4% | viability, T/C (second compound 0.316 µM, first compound 0.01 µM) 56.9% | viability, T/C [25] 49.4% | viability, T/C [26] 47.7% | viability, T/C (second compound 1 µM, first compound 0.000316 µM) 63.2% | viability, T/C (second compound 1 µM, first compound 0.001 µM) 58% | viability, T/C (second compound 1 µM, first compound 0.00316 µM) 53.9% | viability, T/C (second compound 1 µM, first compound 0.01 µM) 51.6% | viability, T/C [31] 50% | viability, T/C [32] 45.4%
0.0176 µM: IC50 (second compound 1 µM)
0.074 µM: IC50 (second compound 0.1 µM)
